The text below walks through data of US9676712B2, “Lactam compounds as EP4 receptor-selective agonists for use in the treatment of EP4-mediated diseases and conditions” (Cayman Chemical Company, Inc., priority 2013, dated 2017).

Experiment [1] concerns the target EP2 receptor (Rattus norvegicus (Rat), UniProt Q62928). Put plainly: STEP plate cell functional assay, SEAP activity, EP2. It counts as cell-based. The note with it: SEAP reporter, 6-8 hours stimulation. The source says:
(§1) Functional Cellular Assays (STEP Plate Format)
(§2) Procedure of SEAP Activity Assay for EP2/EP4 Agonist
(§3) 3. […] In addition each concentration had triplicates.
(§4) 4. […] Cover the plate with the lid.

Experiment [2] addresses T1, EP4 receptor (Rattus norvegicus (Rat), UniProt P43114). Put plainly: STEP plate cell functional assay, SEAP activity, EP4. Format: cell-based. The note with it: SEAP reporter, 6-8 hours stimulation.
Description: as §1, §2, §3, §4

The target of experiment [3] is T1, EP4 receptor. Put plainly: STEP plate cell functional assay, cAMP level (ELISA), EP4. Format: cell-based. The note with it: 30 minutes, 500 μM IBMX.
Description: as §1
Procedure of cAMP Assay for EP2/EP4 Agonist
as §3
6. Aspirate the supernatant.
(In general: Changes in cAMP serve as a functional read-out for many G protein-coupled receptors.)

Experiment [4] deals with Human Prostanoid EP4 Receptor (Homo sapiens (Human), UniProt P35408). Description: Radioligand binding assay, agonist site of the human prostanoid EP4 receptor in transfected HEK-293 cells ([3H]PGE2). As for the experimental part:
Radioligand Binding Assay for the Evaluation of the Affinity of Compounds for the Agonist Site of the Human Prostanoid EP4 Receptor in Transfected HEK-293 Cells
Following incubation, the samples are filtered rapidly under vacuum through glass fiber filters (GF/B, Packard) presoaked with 0.3% PEI and rinsed several times with ice-cold 50 mM Tris-HCl using a 96-sample cell harvester (Unifilter, Packard). The filters are dried then counted for radioactivity in a scintillation counter (Topcount, Packard) using a scintillation cocktail (Microscint 0, Packard).

For orientation: EC50 means the concentration that produces a half-maximal response. What is called IC50 is the concentration that inhibits the measured activity by half. As usually defined, the Ki is a dissociation constant, usually derived from enzyme kinetics or from competition with a known ligand.

T1 sequence (P43114 whole entry): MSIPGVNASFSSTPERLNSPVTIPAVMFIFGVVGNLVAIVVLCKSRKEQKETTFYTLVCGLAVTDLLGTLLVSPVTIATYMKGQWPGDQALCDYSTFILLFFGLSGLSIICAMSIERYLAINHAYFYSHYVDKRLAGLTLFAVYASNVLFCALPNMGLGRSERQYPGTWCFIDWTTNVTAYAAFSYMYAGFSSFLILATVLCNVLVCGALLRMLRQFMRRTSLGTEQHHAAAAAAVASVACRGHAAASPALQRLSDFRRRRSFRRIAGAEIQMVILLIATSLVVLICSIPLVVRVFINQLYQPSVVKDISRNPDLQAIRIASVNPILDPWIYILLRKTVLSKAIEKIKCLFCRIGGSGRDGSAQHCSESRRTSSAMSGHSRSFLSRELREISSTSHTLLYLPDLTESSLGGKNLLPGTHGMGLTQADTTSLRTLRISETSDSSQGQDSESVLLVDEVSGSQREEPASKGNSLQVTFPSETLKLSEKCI
EP2 receptor, sequence (Q62928 whole entry): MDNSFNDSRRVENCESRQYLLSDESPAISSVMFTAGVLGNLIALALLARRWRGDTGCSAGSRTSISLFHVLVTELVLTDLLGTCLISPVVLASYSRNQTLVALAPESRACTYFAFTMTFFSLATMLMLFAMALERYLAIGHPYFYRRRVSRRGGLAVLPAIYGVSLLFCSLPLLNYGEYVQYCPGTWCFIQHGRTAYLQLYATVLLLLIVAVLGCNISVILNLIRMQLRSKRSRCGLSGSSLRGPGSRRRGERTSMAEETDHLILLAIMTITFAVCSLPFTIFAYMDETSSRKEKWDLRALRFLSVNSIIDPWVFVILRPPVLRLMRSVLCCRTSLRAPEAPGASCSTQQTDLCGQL
Human Prostanoid EP4 Receptor, sequence (P35408 whole entry): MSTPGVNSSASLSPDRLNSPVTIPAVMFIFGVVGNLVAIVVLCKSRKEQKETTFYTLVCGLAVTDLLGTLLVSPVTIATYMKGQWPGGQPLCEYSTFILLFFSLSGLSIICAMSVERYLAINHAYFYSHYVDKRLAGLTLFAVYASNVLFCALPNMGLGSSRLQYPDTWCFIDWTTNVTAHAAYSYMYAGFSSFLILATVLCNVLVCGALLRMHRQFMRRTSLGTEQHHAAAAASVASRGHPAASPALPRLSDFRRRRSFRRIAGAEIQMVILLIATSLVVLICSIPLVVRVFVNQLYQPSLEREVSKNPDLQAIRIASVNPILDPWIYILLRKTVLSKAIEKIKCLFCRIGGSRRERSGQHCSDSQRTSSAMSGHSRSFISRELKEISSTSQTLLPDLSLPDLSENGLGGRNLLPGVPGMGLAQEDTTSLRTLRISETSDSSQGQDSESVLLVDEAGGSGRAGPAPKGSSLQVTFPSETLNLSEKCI

With `CC(CCCc1ccccc1)[C@H](O)/C=C/[C@H]1CCC(=O)N1CCCc1ccc(C(=O)O)s1` (mixture of isomers) [Example 4C, 5-(3-((2R)-2-((3S,E)-3-hydroxy-4-methyl-7-phenylhept-1-en-1-yl)-5-oxopyrrolidin-1-yl)propyl)thiophene-2-carboxylic acid], the results for the EC50 in experiment [1] and in experiment [2] were 2280 nM and 0.003 nM, respectively.

As to `CC(CCCc1ccccc1)[C@H](O)/C=C/[C@H]1CCC(=O)N1CC#Cc1ccc(C(=O)O)s1` (mixture of isomers) [Example 3C, 5-(3-((2R)-2-((3S,E)-3-hydroxy-4-methyl-7-phenylhept-1-en-1-yl)-5-oxopyrrolidin-1-yl)prop-1-yn-1-yl)thiophene-2-carboxylic acid], the EC50 in experiment [1] was more than 10000 nM; in experiment [2], 0.019 nM.

With `CC(CCCc1ccccc1)[C@@H](O)/C=C/[C@H]1CCC(=O)N1CCCc1ccc(C(=O)O)s1` (mixture of isomers) [Example 4D, 5-(3-((2R)-2-((3R,E)-3-hydroxy-4-methyl-7-phenylhept-1-en-1-yl)-5-oxopyrrolidin-1-yl)propyl)thiophene-2-carboxylic acid], the EC50 in experiment [1] was more than 10000 nM.

As for `CC(CCCc1ccccc1)[C@@H](O)/C=C/[C@H]1CCC(=O)N1CC#Cc1ccc(C(=O)O)s1` (mixture of isomers) [Example 3D, 5-(3-((2R)-2-((3R,E)-3-hydroxy-4-methyl-7-phenylhept-1-en-1-yl)-5-oxopyrrolidin-1-yl)prop-1-yn-1-yl)thiophene-2-carboxylic acid], the EC50 in experiment [1] was more than 10000 nM; in experiment [2], 31.5 nM.

As for `CC(CCCc1ccccc1)[C@H](O)/C=C/[C@H]1CCC(=O)N1CCCCCCC(=O)O` (mixture of isomers) [Example 2C, 7-((2R)-2-((3S,E)-3-hydroxy-4-methyl-7-phenylhept-1-en-1-yl)-5-oxopyrrolidin-1-yl)heptanoic acid], the EC50 in experiment [3] is 0.007 nM; in experiment [1], more than 1000 nM; in experiment [2], 0.001 ± 0.001 nM.

Regarding `O=C(O)CCCCCCN1C(=O)CC[C@@H]1/C=C/[C@@H](O)CCCCc1ccccc1` [Example 1C, 7-((R)-2-((S,E)-3-hydroxy-7-phenylhept-1-en-1-yl)-5-oxopyrrolidin-1-yl)heptanoic acid], the values for the EC50 in experiment [3], in experiment [1] and in experiment [2] were 1.37 nM, more than 1000 nM and 0.014 ± 0.02 nM, respectively. Besides, in experiment [4] (read-out: hEP4 receptor binding IC50), the 50% inhibitory concentration (IC50) amounted to 10 nM. The Ki in experiment [4] (read-out: hEP4 receptor binding Ki) was 3.8 nM.
